This note sets out measurements from US9018388B2, “Pesticidal compositions and processes related thereto” (Dow AgroSciences LLC, priority 2012, dated 2015).

Common to all, as to format: in vivo
Test [1] concerns Corn Earworm (CEW) (Helicoverpa zea). In words: Bioassay on corn earworm (CEW), 128-well diet tray assay. The conditions noted are these: Corn earworm, 50 μg/cm^2; for pest or weed control at 50 µg/cm2, 50 µg/cm2: Helicoverpa zea, read-out: % Mortality CEW 50 μg/cm^2. The gist of the method: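 Second-instar Helicoverpa zea larvae (one to five per well) placed on artificial diet treated with 50 μg/cm^2 compound in 90:10 acetone-water, dried, eight wells per compound. Held at 25 °C, 14:10 light-dark, five to seven days; percent mortality averaged over wells.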

Test [2] deals with Beet Armyworm (BAW) (Spodoptera exigua). In words: Bioassay on beet armyworm (BAW), 128-well diet tray assay. The conditions noted are these: Beet armyworm, 50 μg/cm^2; for pest or weed control at 50 µg/cm2, 50 µg/cm2: Spodoptera exigua, read-out: % Mortality BAW 50 μg/cm^2. The gist of the method: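 Second-instar Spodoptera exigua larvae, one to five per well, on artificial diet treated with 50 μg/cm^2 compound in 90:10 acetone-water and dried, eight wells per compound. Held at 25 °C, 14:10 light-dark for five to seven days; percent mortality averaged over wells.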

For test [3], the system named is Green Peach Aphid (GPA) (Myzus persicae). In words: Bioassay on green peach aphid (GPA), foliar spray on cabbage seedlings. The conditions noted are these: 72 h, read-out: % Mortality GPA 200 ppm. As to the method: Bioassays on Green Peach Aphid (“GPA”) (Myzus persicae)
Certain molecules disclosed in this document were tested against GPA using procedures described in the following example. In the reporting of the results, the “GPA Rating Table” was used (See Table Section).
Cabbage seedlings grown in 3-inch pots, with 2-3 small (3-5 cm) true leaves, were used as test substrate. The seedlings were infested with 20-50 GPA (wingless adult and nymph stages) one day prior to chemical application. Four pots with individual seedlings were used for each treatment. Test compounds (2 mg) were dissolved in 2 mL of acetone/methanol (1:1) solvent, forming stock solutions of 1000 ppm test compound. The stock solutions were diluted 5× with 0.025% Tween 20 in H2O to obtain the solution at 200 ppm test compound. A hand-held aspirator-type sprayer was used for spraying a solution to both sides of […] leaves until runoff. Reference plants (solvent check) were sprayed with the diluent only containing 20% by volume of acetone/methanol (1:1) solvent. Treated plants were held in a holding room for three days at approximately 25° C. and ambient relative humidity (RH) prior to grading. Evaluation was conducted by counting the number of live aphids per plant under a microscope. Percent Control was measured by using Abbott's correction formula (W. S. Abbott, “A Method of Computing the Effectiveness of an Insecticide” J. Econ. Entomol. 18 (1925), pp. 265-267) as follows. Corrected%Control=100*(X−Y)/X • where • X=No. of live aphids on solvent check plants and • Y=No. of live aphids on treated plants
The results are indicated in the table entitled “Table 5: Biological Results” (See Table Section).

Take `Cc1cc(Br)cc(C)c1N1CCCS/C1=N\N=C\c1ccc(-c2ncn(-c3ccc(OC(F)(F)F)cc3)n2)cc1` [Compound 203C]: the pest or weed control at 50 µg/cm2, 50 µg/cm2 in test [1] and in test [2] was 50 to 100% throughout. For the same compound, in test [3], the pest or weed control at 200 ppm was in the range of 0 to 80%.

As for `CC(C)c1ccccc1N1CCS/C1=N\N=C\c1ccc(-c2ncn(-c3ccc(OC(F)(F)F)cc3)n2)cc1` [Compound 132C], the pest or weed control at 50 µg/cm2, 50 µg/cm2 in test [1] and in test [2] was 50 to 100% throughout. Also, the pest or weed control at 200 ppm in test [3] fell in the range of 0 to 80%.

For the compound `Cc1ccccc1N1CCCS/C1=N\N=C\c1ccc(-c2ncn(-c3ccc(OC(F)(F)F)cc3)n2)cc1` [Compound 195C], the pest or weed control at 50 µg/cm2, 50 µg/cm2 in test [1] and in test [2] was 50 to 100% in each case. The pest or weed control at 200 ppm in test [3] is 0 to 80%.

For the compound `Cc1cccc(C)c1/N=C(/N/N=C/c1ccc(-c2ncn(-c3ccc(OC(F)(F)F)cc3)n2)cc1)SCc1ccc(S(=O)(=O)Nc2ccc(F)cc2)cc1` [Compound 18C], the pest or weed control at 50 µg/cm2, 50 µg/cm2 in test [1] and in test [2] was 50 to 100% each time. Also, the pest or weed control at 200 ppm in test [3] lay in the range of 0 to 80%.

Regarding `Cc1cccc(C)c1/N=C(/N/N=C/c1ccc(-c2ncn(-c3ccc(OC(F)(F)F)cc3)n2)cc1)SCc1ocnc1-c1ccccc1` [Compound 15C], the pest or weed control at 50 µg/cm2, 50 µg/cm2 in test [1] and in test [2] was 50 to 100% throughout. Besides, the pest or weed control at 200 ppm in test [3] lay in the range of 80 to 100%.

`Cc1cccc(C)c1N1CCCS/C1=N\N=C\c1ccc(-c2ncn(-c3ccc(OC(F)(F)F)cc3)n2)cc1` [Compound 182C]: the pest or weed control at 50 µg/cm2, 50 µg/cm2 in test [1] and in test [2] was 50 to 100% in each case. Further, the pest or weed control at 200 ppm in test [3] is 0 to 80%.

Regarding `Cc1cccc(C)c1/N=C(/N/N=C/c1ccc(-c2ncn(-c3ccc(OC(F)(F)F)cc3)n2)cc1)SCC(=O)NCCCN` [Compound 66C], the pest or weed control at 50 µg/cm2, 50 µg/cm2 in test [1] and in test [2] was 50 to 100% each time. Moreover, in test [3], the pest or weed control at 200 ppm is 0 to 80%.

Turning to `COc1cc(C)c(/N=C(/N/N=C/c2ccc(-c3ncn(-c4ccc(OC(F)(F)F)cc4)n3)cc2)SCOC(=O)C(C)(C)C)c(C)c1` [Compound 40C], the pest or weed control at 50 µg/cm2, 50 µg/cm2 in test [1] and in test [2] was 50 to 100% in each case. Moreover, the pest or weed control at 200 ppm in test [3] was in the range of 0 to 80%.

Regarding `COc1cc(C)c(/N=C(/N/N=C/c2ccc(-c3ncn(-c4ccc(OC(F)(F)F)cc4)n3)cc2)SCC(=O)O)c(C)c1.[Na+]` [Compound 68C, 2-(((Z)-((4-methoxy-2,6-dimethylphenyl)imino)((E)-2-(4-(1-(4-(trifluoromethoxy)phenyl)-1H-1,2,4-triazol-3-yl)benzylidene)hydrazinyl)methyl)-thio)acetic acid sodium salt], in test [1], the “% Mortality CEW 50 μg/cm^2” value is recorded as “A (50-100)”. For the same compound, in test [2], the “% Mortality BAW 50 μg/cm^2” value is “A (50-100)”. For the same compound, the pest or weed control at 200 ppm in test [3] lay in the range of 0 to 80%.

Turning to `COc1cc(C)c(N2CCS/C2=N\N=C\c2ccc(-c3ncn(-c4ccc(OC(F)(F)F)cc4)n3)cc2)c(C)c1` [Compound 138C], the pest or weed control at 50 µg/cm2, 50 µg/cm2 in test [1] and in test [2] was 50 to 100% throughout. Also, the pest or weed control at 200 ppm in test [3] lay in the range of 0 to 80%.

On to `COc1cc(C)c(/N=C(/N/N=C/c2ccc(-c3ncn(-c4ccc(OC(F)(F)F)cc4)n3)cc2)SCOC(=O)CNC(=O)OCc2ccccc2)c(C)c1` [Compound 28C], for which the pest or weed control at 50 µg/cm2, 50 µg/cm2 in test [1] and in test [2] was 50 to 100% throughout. In test [3], the pest or weed control at 200 ppm lay within 0 to 80%.

Consider `CCc1ccccc1N1CCS/C1=N\N=C\c1ccc(-c2ncn(-c3ccc(OC(F)(F)F)cc3)n2)cc1` [Compound 133C], for which the pest or weed control at 50 µg/cm2, 50 µg/cm2 in test [1] and in test [2] was 50 to 100% throughout. Further, the pest or weed control at 200 ppm in test [3] was in the range of 0 to 80%.

`COc1cc(C)c(/N=C(/N/N=C/c2ccc(-c3ncn(-c4ccc(OC(F)(F)F)cc4)n3)cc2)SCOC(=O)C(C)C)c(C)c1` [Compound 27C]: the pest or weed control at 50 µg/cm2, 50 µg/cm2 in test [1] and in test [2] was 50 to 100% throughout. The pest or weed control at 200 ppm in test [3] was 0 to 80%.

`Cc1cccc(C)c1-n1c(-c2ccc(OC(F)(F)F)cc2)cs/c1=N\N=C\c1ccc(-c2ncn(-c3ccc(OC(F)(F)F)cc3)n2)cc1` [Compound 78C]: the pest or weed control at 50 µg/cm2, 50 µg/cm2 in test [1] and in test [2] was 50 to 100% throughout. Further, the pest or weed control at 200 ppm in test [3] lay within 0 to 80%.

With `CCOCC(=O)OCS/C(=N\c1c(C)cc(OC)cc1C)N/N=C/c1ccc(-c2ncn(-c3ccc(OC(F)(F)F)cc3)n2)cc1` [Compound 29C], the pest or weed control at 50 µg/cm2, 50 µg/cm2 in test [1] and in test [2] was 50 to 100% throughout. Further, in test [3], the pest or weed control at 200 ppm lay within 0 to 80%.

As to `CC(C)Cc1ccccc1N1CCCS/C1=N\N=C\c1ccc(-c2ncn(-c3ccc(OC(F)(F)F)cc3)n2)cc1` [Compound 193C], the pest or weed control at 50 µg/cm2, 50 µg/cm2 in test [1] and in test [2] was 50 to 100% throughout. Further, the pest or weed control at 200 ppm in test [3] is 0 to 80%.

As for `Cc1cccc(C)c1/N=C(/N/N=C/c1ccc(-c2ncn(-c3ccc(OC(F)(F)F)cc3)n2)cc1)SCc1c(F)cccc1F` [Compound 5C], the pest or weed control at 50 µg/cm2, 50 µg/cm2 in test [1] and in test [2] was 50 to 100% in each case. For the same compound, the pest or weed control at 200 ppm in test [3] was in the range of 0 to 80%.

Take `Cc1cccc(C)c1/N=C(/N/N=C/c1ccc(-c2ncn(-c3ccc(OC(F)(F)F)cc3)n2)cc1)SCC(=O)NCC(NC(=O)OC(C)(C)C)C(=O)O` (stereo not drawn) [Compound 59C]: the pest or weed control at 50 µg/cm2, 50 µg/cm2 in test [1] and in test [2] was 50 to 100% in each case. Further, the pest or weed control at 200 ppm in test [3] is 0 to 80%.

For `Cc1cccc(C)c1/N=C(/N/N=C/c1ccc(-c2ncn(-c3ccc(OC(F)(F)F)cc3)n2)cc1)SCOC(=O)CNC(=O)OC(C)(C)C` [Compound 30C], the pest or weed control at 50 µg/cm2, 50 µg/cm2 in test [1] and in test [2] was 50 to 100% in each case. Also, the pest or weed control at 200 ppm in test [3] lay within 0 to 80%.

Take `CC(C)=Cc1ccccc1N1CCS/C1=N\N=C\c1ccc(-c2ncn(-c3ccc(OC(F)(F)F)cc3)n2)cc1` [Compound 151C]: the pest or weed control at 50 µg/cm2, 50 µg/cm2 in test [1] and in test [2] was 50 to 100% throughout. The pest or weed control at 200 ppm in test [3] was in the range of 0 to 80%.

On to `FC(F)(F)Oc1ccc(-n2cnc(-c3ccc(/C=N/N=C4\SCCCN4c4c(Cl)cccc4C(F)(F)F)cc3)n2)cc1` [Compound 190C], for which the pest or weed control at 50 µg/cm2, 50 µg/cm2 in test [1] and in test [2] was 50 to 100% in each case. Besides, the pest or weed control at 200 ppm in test [3] was in the range of 0 to 80%.

On to `COc1cc(C)c(N2CCCS/C2=N\N=C\c2ccc(-c3ncn(-c4ccc(OC(F)(F)F)cc4)n3)cc2)c(C)c1` [Compound 181C], for which the pest or weed control at 50 µg/cm2, 50 µg/cm2 in test [1] and in test [2] was 50 to 100% each time. Moreover, in test [3], the pest or weed control at 200 ppm lay in the range of 0 to 80%.

With `Cc1ccccc1N1/C(=N/N=C/c2ccc(-c3ncn(-c4ccc(OC(F)(F)F)cc4)n3)cc2)SCC1C` (stereo not drawn) [Compound 154C], the pest or weed control at 50 µg/cm2, 50 µg/cm2 in test [1] and in test [2] was 50 to 100% each time. The pest or weed control at 200 ppm in test [3] is 0 to 80%.

As to `CC(=O)OCS/C(=N\c1c(C)cccc1C)N/N=C/c1ccc(-c2ncn(-c3ccc(OC(F)(F)F)cc3)n2)cc1` [Compound 31C], the pest or weed control at 50 µg/cm2, 50 µg/cm2 in test [1] and in test [2] was 50 to 100% throughout. In addition, the pest or weed control at 200 ppm in test [3] fell in the range of 0 to 80%.

Regarding `CCc1cccc(C)c1N1C(=O)CS/C1=N\N=C\c1ccc(-c2ncn(-c3ccc(OC(F)(F)F)cc3)n2)cc1` [Compound 111C], the pest or weed control at 50 µg/cm2, 50 µg/cm2 in test [1] and in test [2] was 50 to 100% throughout. In addition, in test [3], the pest or weed control at 200 ppm was 0 to 80%.

Consider `COC(=O)c1ccc(CS/C(=N\c2c(C)cccc2C)N/N=C/c2ccc(-c3ncn(-c4ccc(OC(F)(F)F)cc4)n3)cc2)cc1` [Compound 12C], for which the pest or weed control at 50 µg/cm2, 50 µg/cm2 in test [1] and in test [2] was 50 to 100% throughout. In addition, the pest or weed control at 200 ppm in test [3] lay within 0 to 80%.

In the case of `COc1ccc(N2CCCS/C2=N\N=C\c2ccc(-c3ncn(-c4ccc(OC(F)(F)F)cc4)n3)cc2)cc1` [Compound 202C], the pest or weed control at 50 µg/cm2, 50 µg/cm2 in test [1] and in test [2] was 50 to 100% throughout. The pest or weed control at 200 ppm in test [3] was in the range of 0 to 80%.
